These results are taken from patent publication US10149470B2, “Methods and compositions for vein harvest and autografting” (Vanderbilt University, priority 2009, dated 2018).

Holding throughout (type): cell-based
Assay [1] concerns porcine saphenous vein. Kind of assay: KCl-induced contraction of porcine saphenous vein after stretch injury, with or without dye. The protocol:
Freshly isolated porcine saphenous vein was collected in cold transplant harvest buffer (100 mM potassium lactobionate, 25 mM KH2PO4, 5 mM MgSO4, 30 mM raffinose, 5 mM adenosine, 3 mM glutathione, 1 mM allopurinol, 50 g/L hydroxyethyl starch, pH 7.4). The vessels were tested within 24 hours of harvest and storage in transplant harvest buffer at 4° C. The vein was dissected free of fat and connective tissue and cut into 2 cm long segments. The segments were stretched to twice their resting length (stretched; n=7) or not manipulated (control; n=12). After stretching, the segments from both groups were further divided. A solution of erioglaucine (FCF, 2.6 mM, in 5% propylene glycol and water) or vehicle was then applied with a cotton swab in a longitudinal line to the untreated (FCF; n=8) or the stretched (Stretched+FCF; n=3) vein segments. The segments were incubated at room temperature for 15 min in Plasmalyte and then cut into rings. The rings were suspended in a muscle bath containing a bicarbonate buffer (120 mM NaCl, 4.7 mM KCl, 1.0 mM MgSO4, 1.0 mM NaH2PO4, 10 mM glucose, 1.5 mM CaCl2, and 25 mM […], pH 7.4), bubbled with 95% O2/5% CO2 at 37° C. The rings were manually stretched to 4 g of tension, and maintained at a resting tension of 1 g and equilibrated for ˜2 hr.
Rings from stretched segments were either incubated with 50 μM Allura Red (+Red) or 50 μM of erioglaucine (+FCF) for 30 min. The rings were then allowed to equilibrate in the bicarbonate buffer for before contracting with 110 mM KCl. Force generated was converted to stress (10^5 N/m^2). Data represent relative contractile response to Control rings which was set as 100%.

Assay [2] relates to human saphenous vein. Kind of assay: KCl-induced contraction of human saphenous vein rings treated with erioglaucine. The note with it: FIGS. 11A-B. The protocol:
Effect of erioglaucine on human saphenous vein was determined using de-identified discarded segments of human saphenous vein from patients undergoing coronary artery bypass or peripheral vascular bypass surgery (n=4). The veins were stored in a saline solution until the end of the surgical procedure at which time they were placed in cold transplant harvest buffer (100 mM potassium lactobionate, 25 mM KH2PO4, 5 mM MgSO4, 30 mM raffinose, 5 mM adenosine, 3 mM glutathione, 1 mM allopurinol, 50 g/L hydroxyethyl starch, pH 7.4). The vessels were tested within 24 hrs of harvest storage in transplant harvest buffer at 4° C. To test the viability, rings 1.0 mm in width were cut from segments of saphenous vein dissected free of fat and connective tissue, treated with either a solution of erioglaucine (FCF, 2.6 mM, in 5% propylene glycol and water) or vehicle and incubated for 30 min at room temperature. The tissues were then stripped of the endothelium and suspended in a muscle bath containing a bicarbonate buffer, gassed with 95% O2/5% CO2 at 37° C. The rings were manually stretched to 4 g of tension, and was maintained at a resting tension of 1 g was obtained and equilibrated for ˜2 hr. […] The rings were contracted with 110 mM KCl (with equimolar replacement of NaCl in bicarbonate buffer), and the force generated was measured. […]

Assay [3] has as its system human saphenous vein. Kind of assay: BzATP-induced contraction of saphenous vein rings after erioglaucine pretreatment. The note with it: erioglaucine 50-200 μM for 30 min, then 100 μM BzATP; FIG. 12. How it is done: Human saphenous vein segments were collected after harvest before surgical manipulation from patients undergoing coronary artery bypass or peripheral vascular bypass surgery and stored in PlasmaLyte. The vessels were tested within 2 hours of harvest. Freshly isolated porcine saphenous vein was collected in cold transplant harvest buffer (100 mM potassium lactobionate, 25 mM KH2PO4, 5 mM MgSO4, 30 mM Raffinose, 5 mM Adenosine, 3 mM Glutathione, 1 mM Allopurinol, 50 g/L Hydroxyethyl starch, pH 7.4). The vessels were tested within 24 hours of harvest. Rings 1.0 mm in width were cut from porcine saphenous veins (FIG. 12A, n=2) and unmanipulated human saphenous vein (FIG. 12B, n=4) dissected free of fat and connective tissue. The rings were then stripped of the endothelium and suspended in a muscle bath containing a bicarbonate buffer, bubbled with 95% O2/5% CO2 at 37° C. The rings were manually stretched to 4 g of tension, and was maintained at a resting tension of 1 g was obtained and equilibrated for ˜2 hr. Force measurements were obtained using a Radnoti Glass Technology (Monrovia, Calif.) force transducer (159901A) interfaced with a Powerlab data acquisition system and Chart software (AD Instruments, Colorado Springs, Colo.). Rings were contracted with 110 mM KCl. […] Force was measured and converted to stress. Response was expressed as % of maximal KCl contraction. […]

For assay [4], the system named is human saphenous vein. Kind of assay: Intimal thickness of human saphenous vein rings in 14 day organ culture. Conditions: 50 μM erioglaucine, 14 days culture, compared to Control; FIG. 13. The protocol: Segments of human saphenous vein were collected prior to preparation of the vein for transplantation into the arterial circulation (unmanipulated, UM) and after surgical preparation (after manipulation, AM) from the same patients in PlasmaLyte and were used within 2 hr of harvest. The segment was cut into ˜1 mm rings and one ring from each group was fixed in formalin (Pre-culture). The other rings were cultured in RPMI medium supplemented with 1% L-glutamine, 1% penicillin/streptomycin and 30% fetal bovine serum at 5% CO2 and 37° C. in the absence (Control) or presence of 50 μM erioglaucine (FCF) for 14 days. After 14 days, the rings were fixed in formalin, sectioned at 5 μm and stained using Verhoff Van Gieson stain. Light micrograph of the rings was captured using an Axiovert 200 and intimal thickness was measured using AxioVision. Data represent % increase of intimal thickness related to basal intimal thickness of the pre-culture ring which was set as 0%. The error bars show the standard error of the mean.

Assay [5] deals with porcine saphenous vein. Kind of assay: Intimal thickening of distended porcine saphenous vein rings in 14 day organ culture. The note with it: 50 μM dye, 14 days culture, distended to >300 mm Hg, compared to Distended-Control; FIG. 14. The protocol:
Fresh porcine saphenous vein was harvested by a no touch method under sterile conditions and stored in cold transplant harvest buffer (100 mM potassium lactobionate, 25 mM KH2PO4, 5 mM MgSO4, 30 mM Raffinose, 5 mM Adenosine, 3 mM Glutathione, 1 mM Allopurinol, 50 g/L Hydroxyethyl starch, pH 7.4). The vessels were used within 24 hr of harvest. The veins were divided into three segments that were left untreated (Unmanipulated, n=7), distended (Distended, n=8) to >300 mm Hg, or distended in the presence of the pressure relief valve (Pop Off, n=7). Each segment was then cut into ˜1 mm rings and one ring from each condition was immediately fixed in formalin (Pre-culture). The other rings were cultured in RPMI medium supplemented with 1% L-glutamine, penicillin/streptomycin and 30% Fetal bovine serum at 5% CO2 and 37° C. in the absence (Control) or presence of either 50 μM erioglaucine (FCF), 50 μM brilliant blue G (BBG) or 50 μM Allura Red (Red) for 14 days. After 14 days, the rings were fixed in formalin, sectioned at 5 μm and stained using Verhoff Van Gieson stain. Light micrograph of the rings was captured using a Axiovert 200 and intimal thickness was measured using AxioVision.

“Also recorded” adds a separate entry of the source.

`CCN(Cc1cccc(S(=O)(=O)[O-])c1)c1ccc(C(=C2C=CC(=[N+](CC)Cc3cccc(S(=O)(=O)[O-])c3)C=C2)c2ccccc2S(=O)(=O)[O-])cc1.[Na+].[Na+]` [erioglaucine]: the “restoration of functional viability (contractile response to KCl) after stretch injury” value with porcine saphenous vein [1] (50 μM dye for 30 min on rings from stretched segments, FIG. 10) is “significantly restored contractile response”. Moreover, the “restoration of functional viability after stretch injury (in words)” value with porcine saphenous vein [1] (FIG. 9) is on record as “restores functional viability”. Besides, in the assay on human saphenous vein [2], the “smooth muscle viability (in words)” value is recorded as “restores smooth muscle viability”. The BzATP induced contraction result in the assay on human saphenous vein [3] is reported as “significantly inhibited BzATP induced contraction; also recorded: blocks BzATP-induced contraction”. Also, the “development of intimal thickness” value with human saphenous vein [4] is reported as “inhibited the development of intimal thickness; also recorded: reduces intimal thickness”. In addition, the “distension induced increases in intimal thickening” value with porcine saphenous vein [5] was “inhibited distension induced increases in intimal thickening; also recorded: reduces intimal layer thickening”.
